{
  "source": "patent US5482970A",
  "about": "(priority 1993, dated 1996)",
  "key": {"[1]": {"assay": "In vitro skin permeation and metabolism, two-compartment diffusion cell (Example 6)", "format": "in vitro ADME, hairless mouse (HRS/J strain)", "conditions": "for Transdermal Flux Q1, Inocoterone: metabolite from applied inocoterone acetate; for metabolised at 5 h: mouse, of total permeated, read-out: % Metabolite", "text": "(§1) The freshly excised hairless mouse skin was used in the two-compartment diffusion cell method of Chlen et at., Drug Development and Industrial Pharmacy, 11, […] (1985). The hairless mouse (HRS/J strain) was sacrificed just prior to the experiment by cervical dislocation. A square section of the abdominal skin was surgically removed and mounted between two side-by-side half cells; the exposed area of the skin being approximately 0.64 cm^2. A 1-10% weight/volume (w/v) solution of inocoterone acetate and vehicle was added to the donor compartment and a 40% w/v polyethylene glycol 400/normal saline solution was added to the receptor compartment. Simultaneous skin permeation and biotransformation studies Were conducted in a thermostated diffusion cell apparatus at 37° C. At appropriate intervals samples were withdrawn from the receptor compartment and analyzed for inocoterone acetate and its metabolite, inocoterone, by high pressure liquid chromatography. […] Each experiment was carried out in at least triplicate. This method was used in Examples 3 to 6.\nCompositions of 10% w/v of inocoterone acetate in vehicle solutions were prepared by dissolving 1 g of the medicament in 10 ml of a mixture of isopropyl myristate and 95% ethanol in the following volume percent ratios: 100:0, 95:5, 70:30, 60:40, 50:50, 40:60, 30:70, 5:95 and 0:100, respectively. The in vitro skin permeation and metabolism rates were measured using the method described under the in vitro skin permeation test method. The results of these measurements, in terms of the cumulative mount of unchanged medicament and its metabolite permeated in μmoles per square centimeter with time, over 5 hours are given in FIG. 1.\nIn this example, the results of the use of ethanol as the polar organic solvent in combination with various fatty acid esters for the simultaneous skin permeation and metabolism of inocoterone acetate solution are shown."}, "[2]": {"assay": "In vitro skin permeation and metabolism of Carbopol 940 gels, Franz diffusion cell (Example 13)", "format": "in vitro ADME, hairless mouse", "conditions": "for Transdermal Flux Q1, Inocoterone: metabolite; for metabolised at 5 h: mouse, read-out: % Metabolite", "method": "For the evaluation of pharmaceutical compositions of the present invention, the freshly excised hairless mouse skin was used in the diffusion cell method of Franz, Current Problems in Dermatology, 7, 58-68 (1978), in a vertical position, the exposed area of the skin being approximately 1.8 cm^2. The pharmaceutical formulation of known concentration in vehicle was added to the upper compartment of the cell, which was exposed to the stratum corneum side of the skin, and a 40% polyethylene glycol 400/normal saline solution was placed in the lower compartment The penetration and metabolism rates were studied in a thermostated diffusion cell at 37° C. using the analytical method described above. Each experiment was carried out in at least triplicate. This method was used in Examples 7 and 13.\nIn this example the simultaneous skin permeation and metabolism rates of inocoterone acetate incorporated in the Carbopol 940 gels formulated using the compositions described in Example 7 are shown."}, "rat sebaceous gland": {"system": "rat sebaceous gland", "assay": "In vivo antiandrogen activity test, rat: volume density of smooth endoplasmic reticulum of the sebaceous gland"}, "prostate": {"system": "prostate", "assay": "In vivo antiandrogen activity test, rat: prostate (systemic effect)"}, "[3]": {"assay": "Hydrolysis in blank receptor solution", "format": "physicochemical", "conditions": "40% w/v polyethylene glycol 400/normal saline, 37° C., time course of permeation experiment", "text": "as §1"}, "[4]": {"conditions": "vehicle 10% Butyl laurate-90% Ethanol"}, "[5]": {"conditions": "vehicle 10% Ethyl laurate-90% Ethanol"}, "[6]": {"conditions": "vehicle 10% Ethyl oleate-90% Ethanol"}, "[7]": {"conditions": "vehicle 10% Isopropyl palmitate-90% Ethanol"}, "[8]": {"conditions": "vehicle 10% Propyl laurate-90% Ethanol"}, "[9]": {"conditions": "Carbopol 940 gel: inocoterone acetate 10.0, butyl laurate 6.0, ethanol 50.0% w/w"}, "[10]": {"conditions": "Carbopol 940 gel: inocoterone acetate 10.0, ethyl laurate 6.0, ethanol 50.0% w/w"}, "[11]": {"conditions": "Carbopol 940 gel: inocoterone acetate 10.0, isopropyl myristate 6.0, ethanol 50.0% w/w"}},
  "data": [
    {"smiles": "CCC1=C2CC[C@]3(C)[C@@H](O)CC[C@H]3[C@@H]2CCC1=O", "note": "[Inocoterone, 6-ethyl-3αβ-methyl-1,2,3,3a,4,5,8,9,9a,9b-decahydro-7H-benz(e)inden-3-ol-7-one]", "values": [
      {"measurement": "Transdermal Flux Q1, Inocoterone", "setting": "[1]; [4]", "value": "54.5 × 10^2 μmoles/cm^2 /5 hrs"},
      {"measurement": "Transdermal Flux Q1, Inocoterone", "setting": "[1]; [5]", "value": "58.3 × 10^2 μmoles/cm^2 /5 hrs"},
      {"measurement": "Transdermal Flux Q1, Inocoterone", "setting": "[1]; [6]", "value": "36.6 × 10^2 μmoles/cm^2 /5 hrs"},
      {"measurement": "Transdermal Flux Q1, Inocoterone", "setting": "[1]; [7]", "value": "27.5 × 10^2 μmoles/cm^2 /5 hrs"},
      {"measurement": "Transdermal Flux Q1, Inocoterone", "setting": "[1]; [8]", "value": "60.8 × 10^2 μmoles/cm^2 /5 hrs"},
      {"measurement": "Transdermal Flux Q1, Inocoterone", "setting": "[1]; vehicle Ethanol", "value": "1.1 × 10^2 μmoles/cm^2 /5 hrs"},
      {"measurement": "Transdermal Flux Q1, Inocoterone", "setting": "[2]; [9]", "value": "66.2 × 10^2 μmoles/cm^2 /5 hours"},
      {"measurement": "Transdermal Flux Q1, Inocoterone", "setting": "[2]; [10]", "value": "52.7 × 10^2 μmoles/cm^2 /5 hours"},
      {"measurement": "Transdermal Flux Q1, Inocoterone", "setting": "[2]; [11]", "value": "62.8 × 10^2 μmoles/cm^2 /5 hours"}
    ]},
    {"smiles": "CCC1=C2CC[C@]3(C)[C@@H](OC(C)=O)CC[C@H]3[C@@H]2CCC1=O", "note": "[Inocoterone acetate, 3β-acetoxy-6-ethyl-3αβ-methyl-1,2,3,3a, 4,5,8,9,9a,9b-decahydro-7H-benz(e)inden-7-one]", "values": [
      {"measurement": "transcutaneous penetration", "setting": "[1]; isopropyl myristate-ethanol mixture, Example 3", "value": "increased transcutaneous penetration"},
      {"measurement": "metabolised at 5 h", "setting": "[1]; [4]", "value": 57.7, "unit": "%"},
      {"measurement": "metabolised at 5 h", "setting": "[1]; [5]", "value": 67.5, "unit": "%"},
      {"measurement": "metabolised at 5 h", "setting": "[1]; [6]", "value": 66.4, "unit": "%"},
      {"measurement": "metabolised at 5 h", "setting": "[1]; [7]", "value": 74.5, "unit": "%"},
      {"measurement": "metabolised at 5 h", "setting": "[1]; [8]", "value": 70.2, "unit": "%"},
      {"measurement": "metabolised at 5 h", "setting": "[1]; vehicle Ethanol", "value": 100, "unit": "%"},
      {"measurement": "Transdermal Flux Q1, Inocoterone Acetate", "setting": "[1]; [4]", "value": "39.9 × 10^2 μmoles/cm^2 /5 hrs"},
      {"measurement": "Transdermal Flux Q1, Total Inocoterone", "setting": "[1]; [4]", "value": "94.4 × 10^2 μmoles/cm^2 /5 hrs"},
      {"measurement": "Transdermal Flux Q1, Inocoterone Acetate", "setting": "[1]; [5]", "value": "28.1 × 10^2 μmoles/cm^2 /5 hrs"},
      {"measurement": "Transdermal Flux Q1, Total Inocoterone", "setting": "[1]; [5]", "value": "86.4 × 10^2 μmoles/cm^2 /5 hrs"},
      {"measurement": "Transdermal Flux Q1, Inocoterone Acetate", "setting": "[1]; [6]", "value": "18.5 × 10^2 μmoles/cm^2 /5 hrs"},
      {"measurement": "Transdermal Flux Q1, Total Inocoterone", "setting": "[1]; [6]", "value": "55.1 × 10^2 μmoles/cm^2 /5 hrs"},
      {"measurement": "Transdermal Flux Q1, Inocoterone Acetate", "setting": "[1]; [7]", "value": "9.4 × 10^2 μmoles/cm^2 /5 hrs"},
      {"measurement": "Transdermal Flux Q1, Total Inocoterone", "setting": "[1]; [7]", "value": "36.9 × 10^2 μmoles/cm^2 /5 hrs"},
      {"measurement": "Transdermal Flux Q1, Inocoterone Acetate", "setting": "[1]; [8]", "value": "25.8 × 10^2 μmoles/cm^2 /5 hrs"},
      {"measurement": "Transdermal Flux Q1, Total Inocoterone", "setting": "[1]; [8]", "value": "86.6 × 10^2 μmoles/cm^2 /5 hrs"},
      {"measurement": "Transdermal Flux Q1, Inocoterone Acetate", "setting": "[1]; vehicle Ethanol", "value": "0 × 10^2 μmoles/cm^2 /5 hrs"},
      {"measurement": "Transdermal Flux Q1, Total Inocoterone", "setting": "[1]; vehicle Ethanol", "value": "1.1 × 10^2 μmoles/cm^2 /5 hrs"},
      {"measurement": "Transdermal Flux Q1, Inocoterone Acetate", "setting": "[2]; [9]", "value": "45.2 × 10^2 μmoles/cm^2 /5 hours"},
      {"measurement": "Transdermal Flux Q1, Total Inocoterone", "setting": "[2]; [9]", "value": "111.4 × 10^2 μmoles/cm^2 /5 hours"},
      {"measurement": "Transdermal Flux Q1, Inocoterone Acetate", "setting": "[2]; [10]", "value": "38.4 × 10^2 μmoles/cm^2 /5 hours"},
      {"measurement": "Transdermal Flux Q1, Total Inocoterone", "setting": "[2]; [10]", "value": "91.1 × 10^2 μmoles/cm^2 /5 hours"},
      {"measurement": "Transdermal Flux Q1, Inocoterone Acetate", "setting": "[2]; [11]", "value": "36.2 × 10^2 μmoles/cm^2 /5 hours"},
      {"measurement": "Transdermal Flux Q1, Total Inocoterone", "setting": "[2]; [11]", "value": "99.0 × 10^2 μmoles/cm^2 /5 hours"},
      {"measurement": "metabolised at 5 h", "setting": "[2]; [9]", "value": 59.4, "unit": "%"},
      {"measurement": "metabolised at 5 h", "setting": "[2]; [10]", "value": 57.8, "unit": "%"},
      {"measurement": "metabolised at 5 h", "setting": "[2]; [11]", "value": 63.4, "unit": "%"},
      {"measurement": "inhibition of testosterone-induced increase in volume density of smooth endoplasmic reticulum vesicles in intermediate cells of sebaceous gland", "setting": "rat sebaceous gland; 40% isopropyl myristate-60% ethanol, 0.5 mg/cm^2/day, 5 days, 5 cm^2, testosterone propionate-treated castrated rats", "value": "completely inhibited"},
      {"measurement": "inhibition of the effects of testosterone on the sebaceous gland", "setting": "rat sebaceous gland; ethanol vehicle, 0.5 mg/cm^2/day, 5 days, 5 cm^2, testosterone propionate-treated castrated rats", "value": 60, "unit": "%"},
      {"measurement": "volume density of smooth endoplasmic reticulum (SER)", "setting": "rat sebaceous gland; intact rats and castrated rats stimulated with testosterone propionate, topical, 0.25 to 25 mg/rat/day, 1 to 3 weeks", "value": "dose related reduction in volume density of SER"},
      {"measurement": "efficacy in isopropyl myristate-ethanol mixture", "setting": "rat sebaceous gland; isopropyl myristate-ethanol mixture compared with ethanol", "value": "greater efficacy"},
      {"measurement": "effect on prostate weight", "setting": "prostate; intact and castrated testosterone propionate-treated rats, topical, any dose (0.25 to 25 mg/rat/day)", "value": "no significant effect on prostate weight at any dose"},
      {"measurement": "systemic antiandrogenic effect as evidenced by changes in the prostate", "setting": "prostate; isopropyl myristate-ethanol mixture, topical 0.5 mg/cm^2/day, 5 days, testosterone propionate-treated castrated rats", "value": "resulted in a systemic anfiandrogenic effect"},
      {"measurement": "hydrolysis in the blank receptor solution", "setting": "[3]", "value": "No significant hydrolysis"}
    ]}
  ]
}
